Source: patent publication US20240307372A1, “COMPOSITIONS AND METHODS TO IMPROVE BENEFIT OF SUBOPTIMALLY ADMINISTERED THERAPEUCTICS FOR THE TREATMENT OF BENIGN AND NEOPLASTIC DISEASES, INFECTIONS, INFLAMMATORY, METABOLIC AND IMMUNOLOGIAL DISEASES” (priority 2023, published 2024)

Molecular target: T1, CAMKII gamma (Homo sapiens, UniProt Q13555)
T1 construct: purchased Promega V3531
Experiment: CAMKII gamma kinase activity, ADP Glo (Promega)
Assay type: biochemical
Details: 10 uM ATP
Description: An enzymatic study was conducted to evaluate the inhibition of CAMKII gamma by ES-3000 (Tetrandrine). CAMKII gamma kinase activity was measured using […] purchased from Promega following the Promega protocol. CAMKII enzyme system purchased from Promega (V3531). ADP Glo was used for detection. Assay optimized for linearity of protein and time. Conditions for inhibitor screening 25 ng CAMKII, 20 min. incubations, inhibitor or DMSO (5%) at RT in 20 uL total volume. Inhibitor, ATP (10 or 50 uM), substrates and buffer added to tubes and reactions started with enzyme. […] Reactions terminated at 20 min. by adding ADP Glo reaction following manufactures instructions. All reactions were done in duplicate. Calculations of percent (%) inhibition determined by dividing the mean activity at each condition by the mean of the DMSO control times 100.

T1 sequence (Q13555 whole entry): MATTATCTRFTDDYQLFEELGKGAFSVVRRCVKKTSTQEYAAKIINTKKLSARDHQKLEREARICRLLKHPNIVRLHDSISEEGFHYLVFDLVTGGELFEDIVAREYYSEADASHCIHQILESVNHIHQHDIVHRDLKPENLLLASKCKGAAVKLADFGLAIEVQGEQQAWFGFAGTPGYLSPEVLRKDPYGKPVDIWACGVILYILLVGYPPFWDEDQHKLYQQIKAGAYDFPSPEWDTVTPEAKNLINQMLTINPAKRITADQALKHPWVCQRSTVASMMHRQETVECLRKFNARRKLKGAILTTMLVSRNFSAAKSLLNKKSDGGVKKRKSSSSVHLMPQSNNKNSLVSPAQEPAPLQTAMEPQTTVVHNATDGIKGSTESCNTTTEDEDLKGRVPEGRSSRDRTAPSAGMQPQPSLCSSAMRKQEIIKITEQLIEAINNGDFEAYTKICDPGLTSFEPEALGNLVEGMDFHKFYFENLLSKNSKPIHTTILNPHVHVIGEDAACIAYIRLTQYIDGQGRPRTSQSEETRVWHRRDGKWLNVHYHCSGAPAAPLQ

## COc1cc2c3cc1Oc1c(OC)c(OC)cc4c1[C@@H](Cc1ccc(O)c(c1)Oc1ccc(cc1)C[C@@H]3N(C)CC2)N(C)CC4 [berbamine, reference compound]
30 uM
  % inhibition: 37%
  inhibition at 30 µM: 36.7%
  kinase activity, % of DMSO control: 63%
100 uM
  % inhibition: 47%
  inhibition at 100 µM: 47.1%
  kinase activity, % of DMSO control: 53%
250 uM
  % inhibition: 46%
  inhibition at 250 µM: 46.3%
  kinase activity, % of DMSO control: 54%
